From patent US20060100168A1, “Method of treating cancer using adenosine and its analogs” (The Trustee of Boston University, priority 2002, published 2006)
“Also recorded” adds a separate entry of the source.

Legend:
[1] = test system: estrogen receptor α (ERα); assay: ERα protein level by Western blot in MCF-7 cells; type: cell-based, human
Method: Western Blot Analysis: Cells were washed three times in cold 1×PBS, and collected by scraping on ice. Western blot analysis was performed as we described before with the chemiluminescence method (41). […] Cyclin A, cyclin B1 and p27 antibodies were used at 1:500 dilutions. Cyclin E antibody was used at 1:1000 dilutions.

MCF-7 cells = assay: Thymidine incorporation assay; type: cell-based, human; details: treated 24 hours before thymidine
Method: (§1) Thymidine Incorporation Assay. Thymidine incorporation assays were performed as described (Zhang, Y., Wang, Z., and Ravid, K. The cell cycle in polyploid megakaryocytes is associated with reduced activity of cyclin B1-dependent cdc2 kinase. J Biol Chem, 271: 4266-4272, 1996) with modifications. Rat bone marrow cells were cultured in 25 cm^2 flasks at a concentration of 20×10^6 cells per 2 ml. After drug treatment for 24 hours, cells were incubated with ^3H-thymidine at a final concentration of 3 μCi/ml for 8 hours. For MCF-7 cells, cells were cultured in 6-well plates and incubated with ^3H-thymidine for 2 hours after drug treatment. Cells were divided into two portions, sixty percent of which were processed as described (Id.) to obtain tritium counts. The rest of the cells were lysed with Western blotting lysis buffer and protein concentrations were determined by Bio-Rad protein assay reagent (Bio-Rad, Hercules, Calif.). Tritium counts were normalized with corresponding protein concentrations to account for cell number variations.

[2] = test system: primary rat bone marrow cells; assay: Thymidine incorporation assay; type: cell-based; details: 24 hours, IB-MECA at 100 μM
Method: as §1

[3] = test system: cyclin A, cyclin B1, cyclin E, p27; assay: Western blot of cyclins and Cdk inhibitor in MCF-7 cells; type: cell-based, human; details: 100 μM
Method: (§2) Western Blot Analysis: Cells were washed three times in cold 1×PBS, and collected by scraping on ice. Western blot analysis was performed as we described before with the chemiluminescence method (41). Antibodies used in this study were: ERα (NeoMarkers, Ab-15), Cyclin A (Santa Cruz Biotech, H-432), Cyclin B1 (Santa Cruz Biotech, H-433), Cyclin E (Upstate Biotech, HE-12), p27 (Santa Cruz Biotech, F-8). ERα antibody was used at 1:100 dilutions. Cyclin A, cyclin B1 and p27 antibodies were used at 1:500 dilutions. Cyclin E antibody was used at 1:1000 dilutions.

[4] = test system: MCF-7+A3 cells (stably transfected with human A3AR cDNA); assay: Soft agar assay with MCF-7 cells stably expressing A3 adenosine receptor; type: cell-based; details: MCF-7+A3 pool vs MCF-7
Method: Anchorage-independent growth (soft agar) assay: Soft agar assay was performed as described (40) with the following modifications. Ligands were added into the bottom and top agar before plating into 6-well plates. Cells were treated with trypsin (Invitrogen, Carlsbad, Calif.) for 5 minutes in a 37° C. incubator and pipetted several times so that most cells were in single cell forms. Cells were counted with a hemacytometer (Hausser Scientific/VWR, So. Plainfield, N.J.), and 10,000 cells were mixed with top agar and plated into each well. After the top agar had solidified, two ml of medium containing the same treatment was added on top of the agar. This covering medium was changed every two days during culture. After two weeks of culture, each well was counted for the number of colonies formed on an Olympus IX70 microscope under 40× optical amplification. A cell colony was defined as any cluster of cells that contain more than 3 cells. The average of counts from 3 random optical fields for each well was taken as the colony number and analyzed. Each treatment was performed in triplicates. The averages and standard deviations shown in the figures were calculated based on triplicate experiments. […] Clones of cells grown up were analyzed for their A3AR expression using RT-PCR.

[5] = test system: estrogen receptor α (ERα) mRNA; assay: Semi-quantitative RT-PCR of ERα mRNA in MCF-7 cells; type: cell-based, human; details: 100 μM
Method: Total RNA preparation and Reverse Transcription Polymerase Chain Reaction (RT-PCR): Total RNA from MCF-7 cells was prepared with Trizol (Invitrogen, Carlsbad, Calif.) as described before (41). For reverse transcription, 2 μg of RNA were used in a […] with random primers and M-MLV reverse transcriptase (Invitrogen, Carlsbad, Calif.), following the manufacturer's protocol. To control for possible contamination from genomic DNA in subsequent PCR reactions, control reverse transcription reactions were carried out under identical conditions, only without reverse transcriptase. After reverse transcription, 5% of the product was used in each PCR reaction. For the experiments analyzing A3 adenosine receptor (A3AR) expression, 27 cycles were used in the PCR reactions. Specific primers were designed for human A3AR, which match to two separate exons, according to genomic sequences (from GenBank). Sequences for the sense and antisense A3AR primers are: 5′tccatcatgtccttgctg3′ (SEQ ID NO: 1) and 5′gcacatgacaaccaggg3′ (SEQ ID NO.: 2). In the experiments analyzing estrogen receptor a (ERα) mRNA, semi-quantitative PCR reactions were carried out with 23 cycles for ERα primers and 19 cycles for GAPDH primers (used as a control). The cycle numbers were tested in previous experiments not to produce saturation effects. […]

[6] = test system: ERα protein in ZR-75 cells; assay: ERα protein level in ZR-75 cells; type: cell-based, human; details: not shown
Method: as §2

[7] = test system: ERα protein in T47D cells; assay: ERα protein level in T47D cells; type: cell-based, human; details: not shown
Method: as §2

CNC(=O)[C@H]1O[C@@H](n2cnc3c(NCc4cccc(I)c4)ncnc32)[C@H](O)[C@@H]1O [IB-MECA, N^6-(3-iodobenzyl)adenosine-5′-N-methyluronamide]
ERα Level ([1]; 12 hours, 100 μM, except adenosine (500 μM), Western blot quantitated, vehicle control set to 1, average of two experiments): 0.23
ERα protein level, in words ([1]; Western blot): decreased
ERα protein degradation ([1]; protein synthesis inhibited by cycloheximide 50 μg/ml, 100 μM): did not notice any significant change in ERα protein degradation
Thymidine incorporation decreased to (MCF-7 cells): 28%
Thymidine incorporation reduced to [2]: 68%
Cyclin A and B1 levels [3]: downregulated
Cyclin E levels [3]: elevated
cdk inhibitor p27 level [3]: sharp increase
Dosage response of colony formation compared to normal MCF-7 cells [4]: almost identical dosage response
Time of first sign of decrease of ERα mRNA [5]: 4 h
ERα mRNA level, in words ([5]; 4 to 24 hours, compared to GAPDH): strongly downregulated; also recorded: dramatic decrease
ERα protein levels, in words [6]: Reduction of ERα protein levels
ERα protein levels, in words [7]: Reduction of ERα protein levels
